Laboratory results taken from US5543410A, “Pharmacological use of phthaloylhydrazide derivatives; combination and application thereof” (L.I.M.A.D. Limited, priority 1993, dated 1996).

Key:
[1] = test system: proctitis attributable to radiation therapy; conditions: in vivo
From the text: B., a patient who was […], complained of burning sensations in the anus, along with frequent and painful urination, after having received radiation therapy for a period of forty-five days. During a rectosigmoidoscopy examination, intense edema and contact hemorrhaging within the rectal mucosae were observed above the tumor. The diagnosis was: proctitis and cystitis arising from radiation therapy. On account of a lack of specific therapeutic measures, the drug was prescribed for the patient according to a dose of 100 mg per day.

[2] = test system: piglets affected by dysentery; experiment: dysentery in piglets; type: in vivo
Experimental: Experiments were performed with piglets weighing from 30 to 40 kgs, which were affected by dysentery.
Nevertheless, symptoms reappeared six to seven hours later in one group of animals. This factor rendered repeated administration of the drug necessary.

[3] = aqueous solutions, sodium salt
skin diseases = conditions: water-soluble applications and ointments
[4] = test system: Sprague-Dawley Rats' Lipid Metabolism and Serum Lipoproteins; conditions: reducing serum cholesterol; cited from earlier work
metabolic products = type: in vivo; conditions: metabolite

Nc1cccc2c(=O)[nH][nH]c(=O)c12
effectiveness in proctitis attributable to radiation therapy [1]: effective for proctitis attributable to radiation therapy
time to improvement of condition, diarrhea ceased ([2]; 50 mg/kg, first series): sixty
time to reappearance of symptoms ([2]; 50 mg/kg, first series, one group of animals): six to seven
period remaining fully active [3]: sixty to eighty
effectiveness in external use (skin diseases): more effective

O=c1[nH][nH]c(=O)c2ccccc12 [2,3-dihydrophthalazine-1,4-dione]
activity [4]: extremely high level of activity

Nc1ccc(C(=O)O)c(C(=O)O)c1 [5-aminophthalic acid]
excretion unmodified (metabolic products): Most of the aminophthalic acid is expelled from the body without undergoing modification

Nc1ccc2c(=O)[nH][nH]c(=O)c2c1 [4-aminophthaloylhydrazide]
therapeutic effect ([2]; 10, 25, and 50 mg/kg, third series): relatively insignificant
